# Where “and” joins values, the source holds several entries; their conditions need not be identical. Identical values can stand only once. Entries after “also recorded” stand apart in the source; their conditions may differ.
# Tests used:
# Type in all cases: cell-based, human
# PC9 cells = assay: MTT anti-proliferation assay, PC9 cells; conditions: for MTT, PC9, value relative to control (=100), single replicate: 24 h
# Procedure: (§1) To evaluate the tumor-selective activity of compounds 4l and 4m, dose–response studies were performed on wild-type PC9 and gefitinib-resistant PC9/GR cell lines. […] Subtoxic concentrations of 25, 50, and 75 μM were employed to ensure specificity for drug-resistant phenotypes while preserving normal cell viability. […] To assess long-term proliferative potential, clonogenic survival assays were performed. Cells pretreated with 4l (24 h) were trypsinized to generate single-cell suspensions, plated at 300 cells/well, and cultured for 14 days. […] Cell migration ability was evaluated by the scratch healing assay. […] To evaluate the pro-apoptotic efficacy of 4l, we employed a dual-staining approach using Annexin V-FITC and propidium iodide (PI) for quadrant-specific quantification of programmed cell death. Annexin V binds externalized phosphatidylserine (PS), a hallmark of early apoptosis, while PI permeabilization discriminates late-stage apoptotic or necrotic cells.
# (§2) The human normal lung epithelial cell line BEAS-2B, non-small cell lung carcinoma (NSCLC) cell line PC9, and gefitinib-resistant PC9/GR cell line were purchased from Procell Life Science & Technology Co., Ltd. (Wuhan, China). All cell lines were maintained in RPMI-1640 medium (BI, Beit Haemek, Mateh Asher, Israel) supplemented with 10% fetal bovine serum (FBS, Gibco, Thermo Fisher Scientific, Waltham, MA, USA) and 1% penicillin–streptomycin–amphotericin B sterile solution (Solarbio, Beijing, China). Cells were cultured at 37 °C in a humidified incubator with 5% CO2. For subculturing, cells were harvested using trypsin-EDTA solution upon reaching 70–80% confluence and resuspended at appropriate densities for subsequent experiments.
# (§3) MTT: Cells (5 × 10^4/mL) were treated with 4l (25–100 μM, 24–48 h), incubated with MTT (10 μL/well, 4–6 h), and dissolved in DMSO. Absorbance (490 nm) was measured to assess viability.
# PC9/GR cells [1] = assay: MTT anti-proliferation assay, gefitinib-resistant PC9/GR cells; conditions: for MTT, PC9/GR, value relative to control (=100), single replicate: 24 h
# Procedure: as §1, §2, §3
# BEAS-2B cells = assay: MTT cytotoxicity assay, normal bronchial epithelial BEAS-2B cells
# Procedure: The cytotoxicity of compound 4l on normal human bronchial epithelial cells (BEAS-2B) was also evaluated using the MTT assay. Cells treated with 0.1% DMSO served as the vehicle control.
# as §2, §3
# PC9/GR cells [2] = assay: Clonogenic survival / colony formation assay; conditions: 24 h pretreatment, 14 days culture, p < 0.05 vs untreated controls
# Procedure: as §1
# Clonogenic Survival: Single-cell suspensions (300 cells/well) were cultured for 14 days. Colonies (>50 cells) were fixed (4% PFA), stained with crystal violet, and counted.
# PC9/GR cells were seeded into 6-well plates at a density of […] and cultured in a 37 °C incubator for 2 weeks. The culture medium was then discarded, and the cells were washed with PBS. […] Finally, the number of cell colonies was counted.
# PC9/GR cells [3] = assay: Annexin V-FITC/PI apoptosis, flow cytometry; conditions: 24 h, vehicle control 5.2%
# Procedure: as §1
# Annexin V/PI Apoptosis: 4l treated cells were stained with Annexin VFITC/PI (15 min, dark), analyzed by flow cytometry (Q2/Q3: late/early apoptosis).
# PC9/GR cells [4] = assay: Intracellular total cholesterol quantification, PC9/GR cells
# Procedure: Following sample collection, intracellular total cholesterol levels were quantified using a commercial Total Cholesterol (T-CHO) assay kit (Nanjing Jiancheng Bioengineering Institute, Nanjing, China) according to the manufacturer’s protocol. Cells were treated as indicated 24 h prior to analysis. Total cellular protein was extracted, and protein concentration was determined using a bicinchoninic acid (BCA) assay. Protein aliquots were loaded in duplicate into a 96-well microplate. Reagents were added sequentially as specified in the kit instructions. After incubation at 37 °C for 10 min, absorbance was measured at 510 nm using a microplate reader. Total cholesterol content was normalized to cellular protein concentration and expressed as μg cholesterol per mg protein.
# PC9/GR cells [5] = assay: BODIPY 493/503 lipid droplet staining
# Excerpt: To investigate the relationship between intracellular cholesterol levels and gefitinib resistance, we measured cholesterol content in PC9 (gefitinib-sensitive) and PC9/GR (gefitinib-resistant) cells. […] To further elucidate the role of TM7SF2 in mediating the cholesterol-lowering effects of compound 4l in PC9/GR cells, we generated a TM7SF2-overexpressing PC9/GR cell line via plasmid transfection.
# [6] = system: C/EBPβ binding to the TM7SF2 promoter region; assay: ChIP-qPCR of C/EBPβ binding to the TM7SF2 promoter; conditions: Anti-C/EBPβ group of PC9/GR cells treated with 4l
# Excerpt: (§4) We obtained the gene promoter sequence of TM7SF2 from the NCBI database and utilized online databases JASPAR, UCSC, and hTFtarget to predict potential transcription factors for TM7SF2 (Table S2). […] Some studies indicate that p38 can induce C/EBPβ expression through the activation of p38 MAPK, JNK, or ERK in different experimental environments. We conducted Western blot experiments to detect changes in C/EBPβ expression and p38 protein activation and used ChIP and qPCR to determine whether C/EBPβ can target the TM7SF2 promoter region. […] Furthermore, the strength of this direct binding may be related to intracellular cholesterol levels.
# ChIP: 4l treated cells were crosslinked (1% formaldehyde, 20 min), lysed, and sonicated. Chromatin was immunoprecipitated with target antibodies, washed, and eluted. DNA was purified for qPCR.
# qPCR: SYBR Green-based reactions (20 μL) included primers (0.4 μM each) and template DNA.
# [7] = system: p38 activation / C/EBPβ expression; assay: Western blot of p38, p-p38 and C/EBPβ; conditions: PC9/GR
# Excerpt: as §4
# Western blot: Proteins extracted with RIPA buffer were quantified (BCA), separated by SDS-PAGE, transferred to PVDF membranes, and probed with antibodies. Signals were detected by ECL.
compound,measurement,setting,value
"O=C(NCCc1cc(Br)c(O)c(Br)c1)Nc1ccc(F)cc1 [4l, 1-(3,5-dibromo-4-hydroxyphenethyl)-3-(4-fluorophenyl)urea]","MTT, PC9, value relative to control (=100), single replicate",PC9 cells; 25 (μM),96.45 and 96.61 and 99.63 and 98.61
same,"MTT, PC9, value relative to control (=100), single replicate",PC9 cells; 50 (μM),81.78 and 87.43 and 80.72 and 89.73
same,"MTT, PC9, value relative to control (=100), single replicate",PC9 cells; 75 (μM),88.89 and 73.34 and 79.63 and 70.04
same,"MTT, PC9, value relative to control (=100), single replicate",PC9 cells; 100 (μM),57.64 and 69.62 and 60.69 and 61.33
same,IC50,"PC9 cells; Homo sapiens, PC-9, wild-type PC9, MTT, 24-hour treatment, 0–100 μM, read-out: IC50, growth inhibition",136 µM
same,"MTT, PC9/GR, value relative to control (=100), single replicate",PC9/GR cells [1]; 25 (μM),50.73 and 45.72 and 48.62 and 42.88
same,"MTT, PC9/GR, value relative to control (=100), single replicate",PC9/GR cells [1]; 50 (μM),40.96 and 39.65 and 38.32 and 38.58
same,"MTT, PC9/GR, value relative to control (=100), single replicate",PC9/GR cells [1]; 75 (μM),35.79 and 34.89 and 36.33 and 34.75
same,"MTT, PC9/GR, value relative to control (=100), single replicate",PC9/GR cells [1]; 100 (μM),32.66 and 25.67 and 34.43 and 24.78
same,IC50,"PC9/GR cells [1]; Homo sapiens, gefitinib-resistant PC9/GR, MTT, 24-hour treatment, 0–100 μM, read-out: IC50, growth inhibition",35.2 µM
same,"MTT, normal cells, value relative to control (=100), single replicate","BEAS-2B cells; 25 (μM), 24 h",88.6 and 95.3 and 97.6 and 88.2
same,"MTT, normal cells, value relative to control (=100), single replicate","BEAS-2B cells; 25 (μM), 48 h",90.6 and 83.5 and 89.7 and 76.4
same,anti-proliferative effect on BEAS-2B cells,"BEAS-2B cells; 25 to 100 μM, 24 h",no significant anti-proliferative effects
same,"MTT, normal cells, value relative to control (=100), single replicate","BEAS-2B cells; 50 (μM), 24 h",80.6 and 83.5 and 79.7 and 76.4
same,"MTT, normal cells, value relative to control (=100), single replicate","BEAS-2B cells; 50 (μM), 48 h",79.8 and 82.9 and 80.5 and 70.5
same,"MTT, normal cells, value relative to control (=100), single replicate","BEAS-2B cells; 75 (μM), 24 h",79.4 and 80.4 and 76.3 and 78.9
same,"MTT, normal cells, value relative to control (=100), single replicate","BEAS-2B cells; 75 (μM), 48 h",75.2 and 77.7 and 73.1 and 76.4
same,"MTT, normal cells, value relative to control (=100), single replicate","BEAS-2B cells; 100 (μM), 24 h",80.2 and 71.5 and 74.6 and 73.5
same,"MTT, normal cells, value relative to control (=100), single replicate","BEAS-2B cells; 100 (μM), 48 h",77.3 and 80.6 and 71 and 69.3
same,cytotoxicity in normal lung cells,BEAS-2B cells; doses ≤ 100 μM,negligible cytotoxicity; also recorded: minimal cytotoxicity
same,cellular proliferation efficiency of BEAS-2B cells,"BEAS-2B cells; prolonged treatment, 48 h",remained comparable to untreated controls
same,colony formation,PC9/GR cells [2],statistically significant inhibition
same,total apoptosis,PC9/GR cells [3]; 25 μM,9.1%
same,total apoptosis,PC9/GR cells [3]; 50 μM,13.13%
same,total apoptosis,PC9/GR cells [3]; 75 μM,19.53%
same,intracellular cholesterol levels,"PC9/GR cells [4]; PC9/GR, 24 h treatment",reduced intracellular cholesterol levels
same,effect of TM7SF2 overexpression on the 4l-induced change in intracellular cholesterol,PC9/GR cells [4]; TM7SF2-overexpressing PC9/GR cells,abrogated the reduction in intracellular cholesterol levels
same,lipid droplet accumulation,PC9/GR cells [5],significantly inhibited this lipid accumulation
same,C/EBPβ binding to TM7SF2 promoter (specific amplification bands),[6],did not show specific amplification bands
same,C/EBPβ expression and p38 activation,[7],reduce C/EBPβ expression by inhibiting p38 activation

# Source: article PMC12471852, “Design and Synthesis of Marine-Inspired Itampolin A Derivatives to Overcome Chemoresistance in NSCLC via Cholesterol Homeostasis Modulation” (Marine Drugs, 2025)
